{"source": "paper PMC8626469", "about": "“Helicobacter pylori FabX contains a [4Fe-4S] cluster essential for unsaturated fatty acid synthesis” (Nature Communications, 2021)", "molecular_target": "T1, FabX (Helicobacter pylori, UniProt A0A0B2E3F3)", "T1 construct": "gene C2842_03950; full length, 363 residues; expressed in E. coli BL21(DE3) Rosetta; monomer in the asymmetric unit; holds FMN and a [4Fe-4S] cluster", "T1 sequence (A0A0B2E3F3 1-363)": "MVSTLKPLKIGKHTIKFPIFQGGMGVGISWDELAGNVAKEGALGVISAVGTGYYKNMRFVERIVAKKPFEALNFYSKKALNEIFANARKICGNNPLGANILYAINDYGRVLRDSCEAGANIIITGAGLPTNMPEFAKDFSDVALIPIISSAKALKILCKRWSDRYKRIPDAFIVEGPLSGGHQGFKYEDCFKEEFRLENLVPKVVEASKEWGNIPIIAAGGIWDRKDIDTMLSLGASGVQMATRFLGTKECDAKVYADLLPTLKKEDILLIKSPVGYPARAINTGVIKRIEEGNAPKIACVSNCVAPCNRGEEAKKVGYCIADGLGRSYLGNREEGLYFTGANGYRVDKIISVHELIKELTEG", "experiment": "X-ray crystal structure, […] Å", "format": "binding", "settings": "noncovalent in TIM-barrel core; also present in complexes with holo-ACP and octanoyl-ACP", "data": [{"molecule": "Cc1cc2nc3c(=O)[nH]c(=O)nc-3n(C[C@H](O)[C@H](O)[C@H](O)COP(=O)(O)O)c2cc1C", "note": "[FMN]", "values": [{"measurement": "X-ray crystal structure, 1.7 Å", "value": "a FMN molecule is noncovalently bound inside the core"}]}]}
